What was measured:
[1] = Extractability of naltrexone HCl (1.5 mg) from oxycodone HCl (15 mg), 5 tablets/5 mL solvent; assay type: physicochemical
[2] = in comparison to a 15 mg dose of hydrocodone
Excerpt: In certain preferred embodiments, the opioid agonist is hydrocodone.

[3] = pKa values of the drug substances
[4] = Simulated extractability of naltrexone HCl from hydrocodone bitartrate CR AcroContin tablets, 5 tablets in 5 mL solvent (HPLC recovery); assay type: physicochemical; settings: for % Precipitated: 5 tablets in 5 mL; for extractable from the tablets at the higher pH's: high pH (substantially greater than pH 10, preferably above pH 11)
[5] = Simulated extractability of naltrexone HCl from hydrocodone bitartrate CR AcroContin tablets, 4 tablets in 25 mL solvent (HPLC recovery); settings: for solubility in acetone: poor recoveries; for dissolution in the solvents: all of the solvents except acetone
[6] = after oral doses; cited from earlier work
[7] = test system: effects of morphine-like opioid agonist; settings: cited from earlier work
[8] = cited from earlier work
[9] = test system: mu over delta sites; settings: cited from earlier work
[10] = hydrochloride salt; cited from earlier work

Q: With `COc1ccc2c3c1O[C@H]1C(=O)CC[C@@]4(O)[C@@H](C2)N(C)CC[C@]314` [Oxycodone] as the compound, how does the “% Precipitated” value ([1]; diluent Ethanol) read?
A: 13%

Q: And the “% Precipitated” value ([1]; diluent IPA)?
A: 86%

Q: And the “% Precipitated” value ([1]; diluent Methanol)?
A: 13%

Q: And the “% Precipitated” value ([1]; diluent pH 6.9)?
A: 6%

Q: And the “% Precipitated” value ([1]; diluent pH 8.1)?
A: 87%

Q: What about the “% Precipitated” value ([1]; diluent pH 9.4) of the same compound?
A: 98%

Q: What about the “% Precipitated” value ([1]; diluent pH 10.2) of the same compound?
A: 98%

Q: What about the “% Precipitated” value ([1]; diluent pH 11.0) of the same compound?
A: 98%

Q: And the “% Precipitated” value ([1]; diluent pH 11.9)?
A: 98%

Q: And the “% Precipitated” value ([1]; diluent pH 12.8)?
A: 98%

Q: And the “Equianalgesic Doses of Opioids, Calculated Dose” value [2]?
A: 13.5 mg

Q: Which “Equianalgesic Doses of Opioids, Calculated Dose” value [2] does the source give for Meperidine here?
A: 135.0 mg

Q: For `COc1ccc2c3c1OC1C(=O)CC[C@H]4[C@@H](C2)N(C)CC[C@]314` (some centres unmarked) [Hydrocodone, 4,5-epoxy-3-methoxy-17-methylmorphinan-6-one], which pKa ([3]; at amine functional group) is on record?
A: 9.2

Q: And the “% Precipitated” value ([4]; diluent pH 7.1)?
A: 8%

Q: And the “% Precipitated” value ([4]; diluent pH 8.0)?
A: 12%

Q: What about the “% Precipitated” value ([4]; diluent pH 9.0) of the same compound?
A: 27%

Q: What about the “% Precipitated” value ([4]; diluent pH 10.0) of the same compound?
A: 28%

Q: What about the “% Precipitated” value ([4]; diluent pH 11.0) of the same compound?
A: 21%

Q: What about the “% Precipitated” value ([4]; diluent pH 12.0) of the same compound?
A: 83%

Q: What about the “% Precipitated” value ([4]; diluent pH 12.7) of the same compound?
A: 81%

Q: And the “extractable from the tablets at the higher pH's” value (from here on “extractable from the tablets”) [4]?
A: about 80%

Q: What about the solubility in acetone [5] of the same compound?
A: less soluble

Q: What about the “dissolution in the solvents” value [5] of the same compound?
A: dissolved completely

Q: And the “Equianalgesic Doses of Opioids, Calculated Dose” value [2]?
A: 15.0 mg

Q: For `CCC(=O)C(CC(C)N(C)C)(c1ccccc1)c1ccccc1` (centres unmarked) [Methadone], which “Equianalgesic Doses of Opioids, Calculated Dose” value [2] is on record?
A: 9.0 mg

Q: With `C[C@H]1[C@H]2Cc3ccc(O)cc3[C@]1(C)CCN2CC1CC1` [cyclazocine] as the compound, how does the duration of action [6] read?
A: ~24 h

Q: With `COc1ccc2c3c1O[C@H]1[C@@H](O)C=C[C@H]4[C@@H](C2)N(C)CC[C@@]341` [Codeine] as the compound, how does the “Equianalgesic Doses of Opioids, Calculated Dose” value [2] read?
A: 90.0 mg

Q: With `CN1CC[C@]23CCCC[C@H]2[C@H]1Cc1ccc(O)cc13` [Levorphanol] as the compound, how does the “Equianalgesic Doses of Opioids, Calculated Dose” value [2] read?
A: 1.8 mg

Q: Which “antagonism of morphine-like opioid agonist effects” value ([7]; 0.4-0.8 mg intramuscularly or intravenously in man) does the source give for `C=CCN1CC[C@]23c4c5ccc(O)c4O[C@H]2C(=O)CC[C@@]3(O)[C@H]1C5` [naloxone] here?
A: prevent or promptly reverse the effects of morphine-like opioid agonist

Q: What about the “block of the effect of 25 mg of heroin” value ([7]; one mg intravenously) of the same compound?
A: completely block

Q: Which duration of action [6] does the source give for `O=C1CC[C@@]2(O)[C@H]3Cc4ccc(O)c5c4[C@@]2(CCN3CC2CC2)[C@H]1O5` [Naltrexone] here?
A: ~24 h

Q: And the protein binding ([8]; in vivo)?
A: approximately 21%

Q: And the oral bioavailability ([8]; oral)?
A: 5-40%

Q: And the pKa ([3]; at amine functional group)?
A: 8.4

Q: What about the pKa ([3]; at phenol functional group) of the same compound?
A: 10.3

Q: What about the “extractable from the tablets” value [4] of the same compound?
A: about 10%

Q: And the “extractable from the tablets” value ([4]; listed as Naltrexone Hydrochloride)?
A: ~10%

Q: And the “blocking action, receptor preference” value [9]?
A: strong preferential blocking action

Q: What about the solubility in acetone [5] of the same compound?
A: less soluble

Q: And the “dissolution in the solvents” value [5]?
A: dissolved completely

Q: What about the soluble in water [10] of the same compound?
A: about 100 mg/cc

Reference: patent US6627635B2, “Method of preventing abuse of opioid dosage forms” (priority 1997, dated 2003)
